{"source": "paper PMC6978637", "about": "(Saudi Pharmaceutical Journal : SPJ, 2019)", "key": {"NIH-3T3 cells": {"system": "NIH-3T3 cells", "assay": "WST-1 cytotoxicity assay", "format": "cell-based, mouse", "conditions": "Mus musculus, NIH3T3, 48 h, read-out: NIH-3T3 Cells IC50"}, "WST-1 cytotoxicity assay": {"assay": "WST-1 cytotoxicity assay", "format": "cell-based, mouse", "conditions": "mouse, NIH-3T3 cells (mouse embryonic fibroblasts)"}, "FGFR3 [1]": {"system": "FGFR3", "assay": "biochemical", "format": "biochemical"}, "FGFR3 [2]": {"molecular_target": "FGFR3 (Homo sapiens, UniProt P22607)", "sequence (P22607 23-806)": "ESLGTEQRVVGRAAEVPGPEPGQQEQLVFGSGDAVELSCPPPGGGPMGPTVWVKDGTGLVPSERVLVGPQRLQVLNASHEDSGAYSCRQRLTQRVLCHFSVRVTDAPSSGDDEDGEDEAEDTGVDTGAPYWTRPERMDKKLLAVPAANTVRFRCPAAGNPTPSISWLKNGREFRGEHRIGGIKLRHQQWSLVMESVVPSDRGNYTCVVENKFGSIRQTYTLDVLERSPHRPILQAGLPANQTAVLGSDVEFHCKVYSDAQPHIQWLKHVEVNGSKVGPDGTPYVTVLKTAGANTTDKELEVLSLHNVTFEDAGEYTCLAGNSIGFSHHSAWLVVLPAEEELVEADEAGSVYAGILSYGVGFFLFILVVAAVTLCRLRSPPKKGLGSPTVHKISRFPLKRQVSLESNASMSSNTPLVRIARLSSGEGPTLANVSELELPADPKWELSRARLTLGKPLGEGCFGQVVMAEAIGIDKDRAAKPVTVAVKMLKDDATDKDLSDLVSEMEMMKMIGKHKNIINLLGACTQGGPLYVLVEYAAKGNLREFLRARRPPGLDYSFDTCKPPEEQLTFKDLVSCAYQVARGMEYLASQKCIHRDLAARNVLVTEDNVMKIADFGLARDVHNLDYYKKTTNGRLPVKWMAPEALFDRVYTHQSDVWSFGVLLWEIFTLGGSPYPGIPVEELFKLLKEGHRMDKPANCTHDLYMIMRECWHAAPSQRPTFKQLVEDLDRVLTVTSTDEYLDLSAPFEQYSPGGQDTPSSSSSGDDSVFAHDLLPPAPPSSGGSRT", "assay": "biochemical", "format": "biochemical", "conditions": "FGFR3-IC50"}, "FGFR1 [3]": {"system": "FGFR1", "assay": "Z'-LYTE kinase enzyme inhibition assay, FGFR1", "format": "biochemical", "conditions": "for FGFR1-SI: selectivity index IC50/IC50, lowest IC50 of the compound = 1"}, "FGFR1 [4]": {"molecular_target": "FGFR1 (Homo sapiens, UniProt P11362)", "sequence (P11362 22-822)": "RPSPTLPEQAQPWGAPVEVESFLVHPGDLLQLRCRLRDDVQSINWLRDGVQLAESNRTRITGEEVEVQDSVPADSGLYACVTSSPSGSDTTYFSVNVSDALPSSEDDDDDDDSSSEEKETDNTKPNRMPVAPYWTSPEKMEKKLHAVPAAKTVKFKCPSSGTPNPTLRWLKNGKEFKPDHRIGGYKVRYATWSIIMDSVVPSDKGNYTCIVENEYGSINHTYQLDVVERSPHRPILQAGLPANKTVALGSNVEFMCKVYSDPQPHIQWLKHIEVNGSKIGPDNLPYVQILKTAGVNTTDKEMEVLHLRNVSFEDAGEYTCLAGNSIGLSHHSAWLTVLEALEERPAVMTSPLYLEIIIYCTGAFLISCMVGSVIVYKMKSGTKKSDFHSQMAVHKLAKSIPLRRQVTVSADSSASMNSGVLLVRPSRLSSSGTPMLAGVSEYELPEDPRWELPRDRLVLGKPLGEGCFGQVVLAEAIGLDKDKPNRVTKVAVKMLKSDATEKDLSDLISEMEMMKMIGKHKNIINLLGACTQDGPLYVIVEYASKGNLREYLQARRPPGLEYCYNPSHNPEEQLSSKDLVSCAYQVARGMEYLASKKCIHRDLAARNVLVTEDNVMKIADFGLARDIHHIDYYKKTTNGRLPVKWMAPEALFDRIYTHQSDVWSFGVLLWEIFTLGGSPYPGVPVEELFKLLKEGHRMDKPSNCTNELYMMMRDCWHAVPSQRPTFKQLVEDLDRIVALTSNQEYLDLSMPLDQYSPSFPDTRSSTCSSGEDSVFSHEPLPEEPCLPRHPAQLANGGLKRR", "assay": "Z'-LYTE kinase enzyme inhibition assay, FGFR1", "format": "biochemical", "conditions": "FGFR1-IC50"}, "FGFR4": {"molecular_target": "FGFR4 (Homo sapiens, UniProt P22455)", "sequence (P22455 22-802)": "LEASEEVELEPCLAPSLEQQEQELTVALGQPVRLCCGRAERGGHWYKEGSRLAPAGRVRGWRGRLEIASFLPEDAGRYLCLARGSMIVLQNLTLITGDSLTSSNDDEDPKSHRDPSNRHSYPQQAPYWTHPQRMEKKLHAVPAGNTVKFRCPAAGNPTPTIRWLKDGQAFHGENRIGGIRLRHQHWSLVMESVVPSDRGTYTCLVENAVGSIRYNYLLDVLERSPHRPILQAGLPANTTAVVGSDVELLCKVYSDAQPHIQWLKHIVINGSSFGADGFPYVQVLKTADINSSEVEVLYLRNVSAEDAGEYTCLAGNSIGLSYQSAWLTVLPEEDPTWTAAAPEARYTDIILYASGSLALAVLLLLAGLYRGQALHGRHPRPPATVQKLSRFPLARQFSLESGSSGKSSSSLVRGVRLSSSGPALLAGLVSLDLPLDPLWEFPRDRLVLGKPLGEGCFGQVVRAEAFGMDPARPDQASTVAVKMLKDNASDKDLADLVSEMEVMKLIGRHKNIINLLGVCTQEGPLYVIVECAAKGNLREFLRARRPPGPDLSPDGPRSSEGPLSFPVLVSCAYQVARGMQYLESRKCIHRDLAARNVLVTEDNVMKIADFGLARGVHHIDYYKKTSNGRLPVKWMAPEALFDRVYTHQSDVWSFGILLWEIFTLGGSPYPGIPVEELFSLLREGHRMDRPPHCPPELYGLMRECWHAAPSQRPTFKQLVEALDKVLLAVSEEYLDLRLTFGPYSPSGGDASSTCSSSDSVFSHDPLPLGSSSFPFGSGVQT", "assay": "biochemical", "format": "biochemical"}, "FGFR2 [5]": {"system": "FGFR2", "assay": "biochemical"}, "FGFR2 [6]": {"molecular_target": "FGFR2 (Homo sapiens, UniProt P21802)", "sequence (P21802 22-821)": "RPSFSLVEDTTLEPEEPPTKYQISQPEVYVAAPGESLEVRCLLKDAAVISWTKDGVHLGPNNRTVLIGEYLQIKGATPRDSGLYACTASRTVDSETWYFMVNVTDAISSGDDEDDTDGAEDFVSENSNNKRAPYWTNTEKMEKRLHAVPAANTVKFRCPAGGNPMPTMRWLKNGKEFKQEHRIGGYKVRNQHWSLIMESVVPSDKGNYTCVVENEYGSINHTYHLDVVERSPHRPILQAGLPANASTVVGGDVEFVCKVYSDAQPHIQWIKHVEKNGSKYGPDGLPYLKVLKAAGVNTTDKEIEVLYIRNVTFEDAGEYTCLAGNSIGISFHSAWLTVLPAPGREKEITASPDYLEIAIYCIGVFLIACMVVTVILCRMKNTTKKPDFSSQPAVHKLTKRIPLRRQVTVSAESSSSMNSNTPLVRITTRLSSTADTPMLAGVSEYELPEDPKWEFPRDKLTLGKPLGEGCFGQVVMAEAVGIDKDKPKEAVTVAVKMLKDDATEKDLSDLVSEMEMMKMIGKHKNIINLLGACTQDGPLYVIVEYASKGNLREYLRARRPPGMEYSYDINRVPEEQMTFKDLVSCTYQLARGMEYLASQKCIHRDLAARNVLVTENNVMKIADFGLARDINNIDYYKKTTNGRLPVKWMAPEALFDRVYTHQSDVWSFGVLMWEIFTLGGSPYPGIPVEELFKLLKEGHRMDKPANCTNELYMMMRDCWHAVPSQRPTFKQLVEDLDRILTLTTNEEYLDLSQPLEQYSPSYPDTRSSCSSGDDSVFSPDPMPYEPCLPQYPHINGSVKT", "assay": "biochemical", "conditions": "FGFR2-IC50"}}, "data": [{"smiles": "O=CN1CCN(c2ccc(/C=C3/C(=O)Nc4ccc(-c5ccc(C(=O)N6CCOCC6)cc5)cc43)cc2)CC1", "note": "[Compound A27, (E)-4-{4-{ {5-[4-(morpholine-4-carbonyl)phenyl]-2-oxoindolin-3-ylidene}methyl}phenyl}piperazine-1-carbaldehyde]", "values": [{"measurement": "IC50", "setting": "NIH-3T3 cells", "value": "1.23 ± 0.467", "unit": "µM"}, {"measurement": "IC50 at 48 h", "setting": "WST-1 cytotoxicity assay", "value": "> 1000", "unit": "nM"}, {"measurement": "FGFR3-SI", "setting": "FGFR3 [1]", "value": 10.962}, {"measurement": "IC50", "setting": "FGFR3 [2]", "value": "0.131 ± 0.00423", "unit": "µM"}, {"measurement": "FGFR1-SI", "setting": "FGFR1 [3]", "value": 1}, {"measurement": "IC50", "setting": "FGFR1 [4]", "value": "12 ± 0.736", "unit": "nM"}, {"measurement": "IC50", "setting": "FGFR4", "value": "9.24 ± 0.265", "unit": "µM"}]}, {"smiles": "CN1CCN(c2ccc(/C=C3/C(=O)Nc4ccc(-c5ccc6cc(O)ccc6c5)cc43)cc2)CC1", "note": "[Compound A13, (E)-5-(6-hydroxynaphthalen-2-yl)-3-[4-(4-methylpiperazin-1-yl)benzylidene]indolin-2-one]", "values": [{"measurement": "IC50", "setting": "NIH-3T3 cells", "value": "30.1 ± 3.23", "unit": "µM"}, {"measurement": "IC50 at 48 h", "setting": "WST-1 cytotoxicity assay", "value": "> 1000", "unit": "nM"}, {"measurement": "FGFR3-SI", "setting": "FGFR3 [1]", "value": 2442.824}, {"measurement": "IC50", "setting": "FGFR3 [2]", "value": "17.1 ± 0.294", "unit": "µM"}, {"measurement": "FGFR2-SI", "setting": "FGFR2 [5]", "value": 146.083}, {"measurement": "IC50", "setting": "FGFR2 [6]", "value": "1020 ± 67.3", "unit": "nM"}, {"measurement": "FGFR selectivity (in words)", "setting": "FGFR1 [3]; among FGFR1-4", "value": "selectivity to FGFR1"}, {"measurement": "FGFR1-SI", "setting": "FGFR1 [3]", "value": 1}, {"measurement": "IC50", "setting": "FGFR1 [4]", "value": "7 ± 0.206", "unit": "nM"}, {"measurement": "FGFR4-SI", "setting": "FGFR4", "value": 1285.449}, {"measurement": "IC50", "setting": "FGFR4", "value": "8.99 ± 0.314", "unit": "µM"}]}]}
